Laboratory results published in the NIST ThermoML archive (doi:10.1021/je2000952).
± gives the expanded uncertainty stated by the source.

Conditions: Liquid, Closed cell (Static) method

FCC(F)(F)F [1,1,1,2-tetrafluoroethane]
Conditions | vapor or sublimation pressure [kPa]
283.13 K | 414.4 ± 1.2
293.14 K | 571.1 ± 1.4
303.12 K | 769.2 ± 1.8
313.11 K | 1014.9 ± 2.3
323.17 K | 1318.5 ± 2.9
333.16 K | 1681.1 ± 3.6
343.16 K | 2117.3 ± 4.3

C=C(F)C(F)(F)F [2,3,3,3-tetrafluoro-1-propene]
Conditions | vapor or sublimation pressure [kPa]
245.65 K | 110.3 ± 0.4
248.15 K | 122.6 ± 0.4
250.65 K | 136.1 ± 0.4
253.15 K | 150.7 ± 0.5
255.65 K | 166.4 ± 0.5
258.15 K | 183.6 ± 0.6
260.65 K | 201.9 ± 0.6
263.15 K | 221.6 ± 0.6
265.65 K | 242.5 ± 0.7
268.15 K | 265.2 ± 0.7
270.65 K | 289.7 ± 0.8
273.15 K | 315.7 ± 0.8
275.65 K | 343.3 ± 0.9
278.15 K | 372.8 ± 1
280.65 K | 404.1 ± 1
283.15 K | 437.4 ± 1.1
285.65 K | 472.9 ± 1.2
288.15 K | 510.3 ± 1.2
290.65 K | 549.9 ± 1.3
293.16 K | 591.8 ± 1.4
295.65 K | 636 ± 1.5
298.16 K | 682.7 ± 1.6
300.66 K | 731.9 ± 1.7
303.16 K | 783.6 ± 1.8
305.66 K | 838.1 ± 1.9
308.16 K | 895.3 ± 2
310.66 K | 955.5 ± 2.2
313.16 K | 1018.5 ± 2.3
315.66 K | 1084 ± 2.4
318.16 K | 1153.4 ± 2.5
320.66 K | 1225.8 ± 2.7
323.16 K | 1301.6 ± 2.8
325.65 K | 1381 ± 3
328.15 K | 1463.9 ± 3.1
330.66 K | 1550.6 ± 3.3
333.16 K | 1641.1 ± 3.5
335.66 K | 1735.7 ± 3.7
338.16 K | 1833.9 ± 3.8
340.66 K | 1936.6 ± 4
343.15 K | 2043.7 ± 4.2
